Values quoted from earlier work in patent publication US20070293698A1, “Compositions of Allosteric Hemoglobin Modifiers and Methods of Making the Same” (ALLOS THERAPEUTICS, INC., priority 2004, published 2007).

What was measured:
hemoglobin = hemoglobin (Homo sapiens, UniProt P68871+P69905); conditions: in vivo
Lewis lung carcinoma = conditions: mice bearing the Lewis lung carcinoma; Teicher 1996
[1] = system: EMT6 mouse mammary tumors; conditions: efaproxiral plus oxygen breathing, Rockwell and Kelley 1998
mouse fibrosarcoma tumor = conditions: combination of efaproxiral and radiation relative to radiation alone; Teicher 1996, Khandelwal 1996

Chain of hemoglobin (P69905 2-142 limits assumed): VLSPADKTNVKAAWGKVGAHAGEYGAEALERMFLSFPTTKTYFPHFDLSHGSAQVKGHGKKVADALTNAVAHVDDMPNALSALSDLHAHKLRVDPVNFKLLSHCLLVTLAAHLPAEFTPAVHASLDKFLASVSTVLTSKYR
Chain of hemoglobin (P68871 2-147 limits assumed): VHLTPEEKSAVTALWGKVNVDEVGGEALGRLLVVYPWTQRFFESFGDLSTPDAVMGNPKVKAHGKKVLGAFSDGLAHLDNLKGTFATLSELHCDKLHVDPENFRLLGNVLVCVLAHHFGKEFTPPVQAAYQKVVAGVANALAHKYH

tissue oxygenation (hemoglobin): enhance tissue oxygenation in vivo
Compound: Cc1cc(C)cc(NC(=O)Cc2ccc(OC(C)(C)C(=O)O)cc2)c1 [efaproxiral, 2-[4-((((3,5-dimethylphenyl)amino)carbonyl)methyl)phenoxy]-2-methyl propionic acid]
effect on fractionated radiation therapy (Lewis lung carcinoma): enhance fractionated radiation therapy | effect of radiation in tumors ([1]; EMT6 tumors): Enhancement of the effect of radiation was observed | radiation effects in normal tissues ([1]; normal tissues): absence of enhanced radiation effects in normal tissues | tumor growth (mouse fibrosarcoma tumor): tumor growth has been shown to be reduced
